Reference: patent US20250333406A1, “SULFONYL CYCLIC DERIVATIVES, AND COMPOSITIONS AND METHODS THEREOF” (Lysoway Therapeutics, Inc., priority 2023, published 2025)

Tests used:
TFEB = TFEB Nuclear Translocation Assay; assay type: cell-based; settings: read-out: EC50 of TFEB activation
TRPML3 = biological target: T1, TRPML3 (Homo sapiens, UniProt Q8TDD5); settings: cited from earlier work
T1 sequence (Q8TDD5 1-553): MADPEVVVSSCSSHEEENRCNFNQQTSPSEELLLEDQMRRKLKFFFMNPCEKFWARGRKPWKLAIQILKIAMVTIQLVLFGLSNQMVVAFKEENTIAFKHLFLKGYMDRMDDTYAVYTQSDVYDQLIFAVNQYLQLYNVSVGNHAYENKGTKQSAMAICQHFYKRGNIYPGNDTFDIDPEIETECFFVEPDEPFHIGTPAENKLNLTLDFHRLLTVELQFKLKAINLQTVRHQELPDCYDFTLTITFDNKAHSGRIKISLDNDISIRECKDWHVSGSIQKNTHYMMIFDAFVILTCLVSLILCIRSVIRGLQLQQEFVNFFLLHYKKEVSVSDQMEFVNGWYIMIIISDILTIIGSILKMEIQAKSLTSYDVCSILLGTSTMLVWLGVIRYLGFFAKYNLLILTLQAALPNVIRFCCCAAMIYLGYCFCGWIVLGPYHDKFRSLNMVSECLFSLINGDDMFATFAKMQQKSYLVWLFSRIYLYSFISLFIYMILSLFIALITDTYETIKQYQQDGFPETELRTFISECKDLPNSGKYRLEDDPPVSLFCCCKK

[1] = biological target: T2, TRPML-like current (IML-L) (Homo sapiens, UniProt Q9GZU1); settings: wild-type (WT; ML1+/+) human fibroblasts; cited from earlier work
T2 construct: endogenous in cells; host or cells: human fibroblasts (WT ML1+/+; ML4 ML1-/- as negative control)
T2 sequence (Q9GZU1 whole entry): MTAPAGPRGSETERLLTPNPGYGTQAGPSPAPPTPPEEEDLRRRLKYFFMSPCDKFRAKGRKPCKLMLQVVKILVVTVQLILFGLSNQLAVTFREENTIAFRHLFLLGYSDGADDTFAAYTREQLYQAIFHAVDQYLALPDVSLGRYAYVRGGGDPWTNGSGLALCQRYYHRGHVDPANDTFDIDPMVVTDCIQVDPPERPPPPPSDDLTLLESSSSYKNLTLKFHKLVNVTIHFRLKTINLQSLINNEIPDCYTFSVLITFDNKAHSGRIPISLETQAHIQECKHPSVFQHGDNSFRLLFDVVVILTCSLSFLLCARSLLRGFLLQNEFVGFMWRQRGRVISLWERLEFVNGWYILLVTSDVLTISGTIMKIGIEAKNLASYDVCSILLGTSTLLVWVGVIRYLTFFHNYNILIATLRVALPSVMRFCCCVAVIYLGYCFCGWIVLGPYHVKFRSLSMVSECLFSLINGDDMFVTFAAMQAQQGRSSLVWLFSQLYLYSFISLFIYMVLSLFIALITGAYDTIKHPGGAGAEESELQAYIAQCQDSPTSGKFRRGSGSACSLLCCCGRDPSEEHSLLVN

[2] = tested on: TRPML-like current (IML-L); settings: ML4 (ML1−/−) human fibroblasts; cited from earlier work
TRPML2 = biological target: T3, TRPML2 (Homo sapiens, UniProt Q8IZK6); settings: cited from earlier work
T3 sequence (Q8IZK6 1-566): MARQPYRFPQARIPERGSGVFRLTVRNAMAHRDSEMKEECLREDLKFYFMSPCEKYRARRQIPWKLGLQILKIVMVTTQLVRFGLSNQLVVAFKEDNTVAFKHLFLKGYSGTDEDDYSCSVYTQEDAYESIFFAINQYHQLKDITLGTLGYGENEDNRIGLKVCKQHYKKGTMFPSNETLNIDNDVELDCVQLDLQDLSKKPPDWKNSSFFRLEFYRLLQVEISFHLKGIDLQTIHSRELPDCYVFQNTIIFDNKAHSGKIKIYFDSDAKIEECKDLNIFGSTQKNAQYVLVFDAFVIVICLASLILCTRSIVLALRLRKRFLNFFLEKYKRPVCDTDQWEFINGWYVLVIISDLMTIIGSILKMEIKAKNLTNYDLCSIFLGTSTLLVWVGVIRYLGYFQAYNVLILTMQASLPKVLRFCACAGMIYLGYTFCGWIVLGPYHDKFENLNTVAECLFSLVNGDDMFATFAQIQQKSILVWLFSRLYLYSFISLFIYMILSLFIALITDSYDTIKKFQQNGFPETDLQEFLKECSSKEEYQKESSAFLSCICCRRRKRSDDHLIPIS

TRPML1 = settings: cited from earlier work
ML1-4A = biological target: T4, ML1-4A (Homo sapiens, UniProt Q9GZU1, L15A/L16A); settings: HEK293 cells stably or transiently expressing ML1-4A; cited from earlier work
T4 construct: host or cells: HEK293 (stably or transiently transfected)
T4 sequence (Q9GZU1 with tags, fused parts or gaps L15A/L16A limits assumed): as the sequence (Q9GZU1 whole entry) above, with L15A, L16A, L577A, L578A counted along it

TRPMLs = settings: cited from earlier work

| EC50 (TFEB) [nM] | Compound | also measured |
| --- | --- | --- |
| 1000 to 10000 | CC(C)S(=O)(=O)c1nc(S(=O)(=O)n2nc(N3CCN(c4ncc(Cl)cc4F)CC34CC4)c3c(F)ccc(F)c32)cs1 [Compound 193, 4-[3-[7-(5-chloro-3-fluoro-2-pyridyl)-4,7-diazaspiro [2.5]octan-4-yl]-4,7-difluoro-indazol-1-yl]sulfonyl-2-isopropylsulfonyl-thiazole] |  |
| 1000 to 10000 | CC(C)S(=O)(=O)c1nc(S(=O)(=O)n2nc(N3CCN(c4ncc(F)cc4F)CC34CC4)c3c(F)ccc(F)c32)cs1 [Compound 194, 4-[3-[7-(3,5-difluoro-2-pyridyl)-4,7-diazaspiro [2.5]octan-4-yl]-4,7-difluoro-indazol-1-yl]sulfonyl-2-isopropylsulfonyl-thiazole] |  |
| 1000 to 10000 | CC(C)S(=O)(=O)c1nc(S(=O)(=O)n2nc(N3CCN(c4ncc(F)cn4)CC34CC4)c3c(F)ccc(F)c32)cs1 [Compound 195, 4-((4,7-difluoro-3-(7-(5-fluoropyrimidin-2-yl)-4,7-diazaspiro 12.51 octan-4-yl)-1H-indazol-1-yl)sulfonyl)-2-(isopropylsulfonyl) thiazole] |  |
| ≤ 1000 | CC(C)S(=O)(=O)c1nc(S(=O)(=O)n2nc(N3CCN(c4ncc(Cl)cc4F)CC34CC4)c3c(Cl)cccc32)cs1 [Compound 196, 4-((4-chloro-3-(7-(5-chloro-3-fluoropyridin-2-yl)-4,7-diazaspiro [2.5]octan-4-yl)-1H-indazol-1-yl)sulfonyl)-2-(isopropylsulfonyl) thiazole] |  |

Second part, the molecule before the results:

| Compound | EC50 (TFEB) [nM] | also measured |
| --- | --- | --- |
| CC(C)S(=O)(=O)n1ccc(S(=O)(=O)n2nc(N3CCC(F)(F)CC34CC4)c3c(Cl)cc(F)cc32)c1 [Compound 191, 4-chloro-3-(7,7-difluoro-4-azaspiro [2.5]octan-4-yl)-6-fluoro-1-(1-isopropylsulfonylpyrrol-3-yl) sulfonyl-indazole] | ≤ 1000 |  |
| CC(C)S(=O)(=O)n1ccc(S(=O)(=O)n2nc(N3CCC(F)CC34CC4)c3c(Cl)cc(F)cc32)c1 (stereo not drawn) [Compound 192, 4-chloro-6-fluoro-3-(7-fluoro-4-azaspiro [2.5]octan-4-yl)-1-(1-isopropylsulfonylpyrrol-3-yl) sulfonyl-indazole] | ≤ 1000 |  |
| CC(C)S(=O)(=O)c1nc(S(=O)(=O)n2nc(N3CCN(c4ncc(F)cc4F)CC34CC4)c3c(Cl)cc(F)cc32)cs1 [Compound 197, 4-[4-chloro-3-[7-(3,5-difluoro-2-pyridyl)-4,7-diazaspiro [2.5]octan-4-yl]-6-fluoro-indazol-1-yl]sulfonyl-2-isopropylsulfonyl-thiazole] | 1000 to 10000 |  |
| CC(C)S(=O)(=O)c1nc(S(=O)(=O)n2nc(N3CCN(c4ncc(F)cc4F)CC34CC4)c3c(F)cc(F)cc32)cs1 [Compound 198, 4-((3-(7-(3,5-difluoropyridin-2-yl)-4,7-diazaspiro [2.5]octan-4-yl)-4,6-difluoro-1H-indazol-1-yl)sulfonyl)-2-(isopropylsulfonyl) thiazole] | 1000 to 10000 |  |
| CC(C)S(=O)(=O)n1ccc(S(=O)(=O)n2nc(N3CCN(c4ncc(F)cc4F)CC34CC4)c3c(Cl)cc(F)cc32)n1 [Compound 199, 4-chloro-3-[7-(3,5-difluoro-2-pyridyl)-4,7-diazaspiro [2.5]octan-4-yl]-6-fluoro-1-(1-isopropylsulfonylpyrazol-3-yl) sulfonyl-indazole] | ≤ 1000 |  |
| CC(C)S(=O)(=O)n1cnc(S(=O)(=O)n2nc(N3CCN(c4ncc(F)cc4F)CC34CC4)c3c(F)cc(F)cc32)n1 [Compound 200, 3-(7-(3,5-difluoropyridin-2-yl)-4,7-diazaspiro [2.5]octan-4-yl)-4,6-difluoro-1-((1-(isopropylsulfonyl)-1H−1,2,4-triazol-3-yl)sulfonyl)-1H-indazole] | ≥ 10000 |  |
| CC1CC(C)(C)N(C(=O)CN2C(=O)c3ccccc3C2=O)c2ccccc21 (stereo not drawn) [ML-SA1] |  | activation of whole-cell ITRPML3 (TRPML3): activated; activation of whole-endolysosome IML-L [1]: activated; activation of whole-endolysosome IML-L [2]: not; activation of whole-cell ITRPML2 (TRPML2): activated; activation of whole-endolysosome IML1 compared with PI(3,5)P2 (TRPML1; ML-SA1 10 μM, PI(3,5)P2 1 μM): comparable to the effect of the endogenous TRPML agonist PI(3,5)P2 (1 μM); activation of whole-cell IML1-4A and whole-endolysosome IML1 (TRPML1): robustly activated; [Ca2+]cyt increases (ML1-4A): significant [Ca2+]cyt increases; concentration needed to effectively activate TRPMLs (TRPMLs): ~10 µM |
